Assay results published in PubChem BioAssay (NCI).
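Compound exposure: 48 hours, 5 concentrations, 96-well plates. TGI is the concentration that stops growth completely.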

Legend:
Test in all cases: NCI anticancer screen, dose series, 48 h
786-0 renal = test system: 786-0 renal
ACHN renal = test system: ACHN renal
BT-549 breast = test system: BT-549 breast
KM12 colon = test system: KM12 colon
M14 melanoma = test system: M14 melanoma
MDA-N = test system: MDA-N
NCI-H23 lung = test system: NCI-H23 lung
NCI/ADR-RES ovarian = test system: NCI/ADR-RES ovarian
OVCAR-8 ovarian = test system: OVCAR-8 ovarian
RPMI-8226 leukemia = test system: RPMI-8226 leukemia
SK-OV-3 ovarian = test system: SK-OV-3 ovarian
SN12C renal = test system: SN12C renal
HT29 colon = test system: HT29 colon
MCF7 breast = test system: MCF7 breast
SK-MEL-2 melanoma = test system: SK-MEL-2 melanoma
SK-MEL-5 melanoma = test system: SK-MEL-5 melanoma
TK-10 renal = test system: TK-10 renal
HL-60(TB) leukemia = test system: HL-60(TB) leukemia
LOX IMVI melanoma = test system: LOX IMVI melanoma

Row | SMILES | TGI (786-0 renal) [µM] | TGI (ACHN renal) [µM] | TGI (BT-549 breast) [µM] | TGI (KM12 colon) [µM] | TGI (M14 melanoma) [µM] | TGI (MDA-N) [µM] | TGI (NCI-H23 lung) [µM] | TGI (NCI/ADR-RES ovarian) [µM] | TGI (OVCAR-8 ovarian) [µM] | TGI (RPMI-8226 leukemia) [µM] | TGI (SK-OV-3 ovarian) [µM] | TGI (SN12C renal) [µM] | TGI (HT29 colon) [µM] | TGI (MCF7 breast) [µM] | TGI (SK-MEL-2 melanoma) [µM] | TGI (SK-MEL-5 melanoma) [µM] | TGI (TK-10 renal) [µM] | TGI (HL-60(TB) leukemia) [µM] | TGI (LOX IMVI melanoma) [µM]
1 | Cc1n[nH]c(=O)n1/N=C/c1ccc(F)cc1 | > 100 | > 100 | > 100 | > 100 | > 100 | > 100 | > 100 | > 100 | > 100 | > 100 | > 100 | > 100 | – | – | – | – | – | – | –
2 | CN=c1c2c(c3[nH]c4ccccc4c4cnc1c34)NCCC2=O | > 10 | > 10 | > 10 | > 10 | > 10 | > 10 | > 10 | > 10 | > 10 | > 10 | > 10 | > 10 | > 10 | > 10 | > 10 | > 10 | > 10 | – | –
3 | O=C1c2ccccc2C(=O)N1CC1S(=O)(=O)OCCOS1(=O)=O | > 100 | > 100 | – | – | > 100 | > 100 | > 100 | > 100 | > 100 | > 100 | > 100 | > 100 | > 100 | > 100 | – | > 100 | > 100 | > 100 | > 100
4 | CC(NO)/C(=N/O)c1ccco1 (stereo not drawn) | > 10 | > 10 | > 10 | > 10 | > 10 | > 10 | > 10 | > 10 | > 10 | > 10 | – | > 10 | > 10 | > 10 | > 10 | – | > 10 | > 10 | –
5 | Nc1nc2c(c(=O)[nH]1)C(c1ccccc1)CC(=O)N2 (stereo not drawn) | > 100 | > 100 | > 100 | > 100 | > 100 | > 100 | > 100 | > 100 | > 100 | > 100 | > 100 | > 100 | > 100 | > 100 | > 100 | > 100 | > 100 | – | > 100
6 | Nc1nc(Cl)c(/C=N\O)c(NCC2(CO)CCC2)n1 | > 100 | > 100 | > 100 | 18.3 | – | > 100 | > 100 | > 100 | > 100 | > 100 | – | > 100 | > 100 | > 100 | – | > 100 | > 100 | – | > 100
7 | Clc1ccc(OCc2nnc(CCCCCCCCc3nnc(COc4ccc(Cl)cc4Cl)n3Nc3ccccc3)n2Nc2ccccc2)c(Cl)c1 | 31.2 | 46.1 | 49.7 | 25.6 | 29.2 | 27.7 | 51 | 51.8 | 50.3 | 16.9 | 39.8 | 38.1 | 35.8 | 45.6 | 24.8 | 7.05 | > 75.1 | – | 34.3
8 | CCCCCCCCCCCCN1[C@H]2CCC[C@H]2C(O)[C@@H]2CCC[C@@H]21 (stereo partly drawn) | > 100 | > 100 | > 100 | > 100 | > 100 | > 100 | > 100 | > 100 | > 100 | > 100 | > 100 | > 100 | > 100 | – | > 100 | > 100 | – | > 100 | > 100
9 | CC1C/C(=C\c2ccc(OC(=O)C(C)(C)C)cc2)C(=O)/C(=C/c2ccc(OC(=O)C(C)(C)C)cc2)C1 (stereo not drawn) | > 100 | > 100 | – | > 100 | > 100 | > 100 | > 100 | > 100 | 86.6 | – | > 100 | > 100 | > 100 | > 100 | > 100 | > 100 | > 100 | 62.3 | > 100
10 | CC(C)(Oc1ccccc1)C(=O)Sc1c(-c2ccccc2)c(=O)n(-c2ccccc2)c(=S)n1-c1ccccc1 | > 100 | > 100 | – | 64.7 | > 100 | > 100 | > 100 | > 100 | 44.1 | – | 87.1 | > 100 | > 100 | > 100 | – | – | > 100 | 64.7 | > 100
11 | CN(C)CCCNc1ccc2c(=O)n(CCN(C)C)c(=O)n3c4ccccc4c(=O)c1c23 | 0.752 | 1.47 | 0.369 | 1.4 | 1.59 | 0.312 | 1.19 | 4.02 | 3.59 | 0.595 | 4.9 | 0.941 | 0.907 | 0.565 | 2.52 | 2.19 | 2.28 | – | 0.343
12 | C1CCCCC2(CCCCCCCCC3(CCC1)OCCO3)OCCO2 | > 100 | > 100 | – | > 100 | > 100 | > 100 | > 100 | > 100 | > 100 | – | > 100 | > 100 | > 100 | > 100 | > 100 | > 100 | > 100 | > 100 | > 100
13 | Nc1c2ccccc2nc2ccc3c(=O)cc(-c4ccccc4)oc3c12 | 0.348 | 2.39 | 59.7 | 2.16 | 2.67 | 2.13 | 3.52 | – | 1.89 | 0.697 | 3.48 | – | 1.86 | 2.05 | 3.65 | – | 3.52 | 3.07 | –
14 | C1CSCCSCCSCCSC1 | – | > 100 | > 100 | > 100 | > 100 | > 100 | > 100 | > 100 | > 100 | > 100 | > 100 | > 100 | > 100 | > 100 | > 100 | > 100 | > 100 | – | > 100
